Experiments:
Format in all cases: in vivo, Balb/c mice
IL-6, IL-10, IL-1β = assay: Determination of cytokines in intestinal tumor tissues by Elisa; details: vs model group; high-dose monotropein (8 mg/kg) and positive drug 5-ASA (100 mg/kg)
Method: Experimental method: 90 Balb/c mice of 6-8 weeks were purchased from the Experimental Animal Center in Guangzhou University of Chinese Medicine, weighed about 18-22 g, and subjected to adaptive feeding for 10 days. Modeling was divided into three stages. In the first stage, except for the normal group of animals being given saline injection, each of the other animals were intraperitoneally injected with a carcinogen AOM (10 mg/kg), and given free access to 2% DSS water from the next day for 7 days, and then given access to replaced regular drinking water for 14 days. In the second stage, the animals were given free access to 2% DSS water for 10 days, and then given access to replaced regular drinking water for 14 days. In the third stage, the animals were given free access to 2% DSS water for 10 days, and then given access to replaced regular drinking water for 11 days. The normal group was given access to regular drinking water throughout the experiment. The diet, water drinking and body weights of the animals were recorded daily and DAI scores were made, and the animals were killed and harvested at the 10th week. In this experiment, the animals were divided into groups and administrated on the first day of a modeling period of the second stage, and the total number of groups was set to 5 groups. […]
The intestinal tumor tissues frozen and stored at −80° C. were taken and homogenized, and the homogenate was determined with a BCA kit for the total protein concentration thereof. The homogenate was diluted by 20 times and then determined by Elisa method for cytokines: IL-6, IL-10, and IL-1β. […]

[1] = system: peripheral blood macrophages; assay: Typing of peripheral blood macrophages by flow cytometry; details: compared with normal group
Method: Experimental method: 90 Balb/c mice of 6-8 weeks were purchased from the Experimental Animal Center in Guangzhou University of Chinese Medicine, weighed about 18-22 g, and subjected to adaptive feeding for 10 days. Modeling was divided into three stages. In the first stage, except for the normal group of animals being given saline injection, each of the other animals were intraperitoneally injected with a carcinogen AOM (10 mg/kg), and given free access to 2% DSS water from the next day for 7 days, and then given access to replaced regular drinking water for 14 days. In the second stage, the animals were given free access to 2% DSS water for 10 days, and then given access to replaced regular drinking water for 14 days. In the third stage, the animals were given free access to 2% DSS water for 10 days, and then given access to replaced regular drinking water for 11 days. The normal group was given access to regular drinking water throughout the experiment. The diet, water drinking and body weights of the animals were recorded daily and DAI scores were made, and the animals were killed and harvested at the 10th week. In this experiment, the animals were divided into groups and administrated on the first day of a modeling period of the second stage, and the total number of groups was set to 5 groups. […] Dosing was conducted daily until dissection. […]

[2] = system: AOM/DSS colon cancer model; assay: AOM/DSS colon cancer model, Experiment 1 (body weight, anal prolapse, organ coefficient, colon and tumor indexes)
Method: Experimental method: 90 Balb/c mice of 6-8 weeks were purchased from the Experimental Animal Center in Guangzhou University of Chinese Medicine, weighed about 18-22 g, and subjected to adaptive feeding for 10 days. Modeling was divided into three stages. In the first stage, except for the normal group of animals being given saline injection, each of the other animals were intraperitoneally injected with a carcinogen AOM (10 mg/kg), and given free access to 2% DSS water from the next day for 7 days, and then given access to replaced regular drinking water for 14 days. In the second stage, the animals were given free access to 2% DSS water for 10 days, and then given access to replaced regular drinking water for 14 days. In the third stage, the animals were given free access to 2% DSS water for 10 days, and then given access to replaced regular drinking water for 11 days. The normal group was given access to regular drinking water throughout the experiment. The diet, water drinking and body weights of the animals were recorded daily and DAI scores were made, and the animals were killed and harvested at the 10th week. In this experiment, the animals were divided into groups and administrated on the first day of a modeling period of the second stage, and the total number of groups was set to 5 groups. The first group was a blank control group (Normal), in which a total of 12 animals were given access to drinking water by gavage; the second group was a model group (AOM/DSS), in which a total of 22 animals were given access to drinking water by gavage; the third group was a positive drug control group (5-ASA+AOM/DSS), in which a total of 22 animals were given access to 100 mg/kg of mesalazine (5-ASA) by gavage; and the fourth and fifth groups were monotropein-intervening groups (Mo+AOM/DSS), which were a high dose of 8 mg/kg and a low dose of 2 mg/kg, respectively, with 17 animals in each group. Dosing was conducted daily until dissection.
(1) The calculation formula of a DAI score: DAI value=(score of weight loss+score of stool trait+score of blood in stool)/3.
The animals were anesthetized and harvested, and the liver, spleen, thymus and testis were weighed to calculate the organ coefficient; the colon tissue was taken, measured with a ruler for the length, and measured with a vernier caliper for the thickness, and the number and size of tumors and degree of colonic ulceration and adhesion were recorded; respective tissues were cut into small pieces and fixed, and the remaining tissues were frozen and stored; and the fixed tissues were used for HE staining and immunohistochemistry.

intestinal permeability = assay: Determination of intestinal permeability in serum with FITC-dextran; details: after third stage of modeling; monotropein high and low doses, 5-ASA 100 mg/kg
Method: Experimental method: 90 Balb/c mice of 6-8 weeks were purchased from the Experimental Animal Center in Guangzhou University of Chinese Medicine, weighed about 18-22 g, and subjected to adaptive feeding for 10 days. Modeling was divided into three stages. In the first stage, except for the normal group of animals being given saline injection, each of the other animals were intraperitoneally injected with a carcinogen AOM (10 mg/kg), and given free access to 2% DSS water from the next day for 7 days, and then given access to replaced regular drinking water for 14 days. In the second stage, the animals were given free access to 2% DSS water for 10 days, and then given access to replaced regular drinking water for 14 days. In the third stage, the animals were given free access to 2% DSS water for 10 days, and then given access to replaced regular drinking water for 11 days. […] The diet, water drinking and body weights of the animals were recorded daily and DAI scores were made, and the animals were killed and harvested at the 10th week. […] 25 μl of serum was taken and added with 100 μl PBS, and determined on a microplate reader for its fluorescence intensity, where the wavelength of the exciting light was 480 nm, and the wavelength of the emitting light was 520 nm. A standard curve was made and the sample concentration was calculated.

SMILES: Nc1ccc(O)c(C(=O)O)c1 [5-ASA, mesalazine, reference compound]
- level of IL-10 in tumor tissues (IL-6, IL-10, IL-1β): no significant differences
- M1/M2 ratio of peripheral blood macrophages [1]: significantly reduced
- spleen enlargement caused by AOM/DSS modeling (organ coefficient) ([2]; monotropein high (8 mg/kg) and low (2 mg/kg) doses, 5-ASA 100 mg/kg): has no such effect
- anal prolapse occurrence at the third stage of modeling ([2]; per group, monotropein 8 mg/kg and 2 mg/kg groups (17 animals each), 5-ASA 100 mg/kg (22 animals), gavage daily, model group 8-12): 8-12 animals
- intestinal permeability (FITC-dextran in serum) vs model group (intestinal permeability): not statistically significant

Reference: patent US20210177879A1, “VITAMIN D RECEPTOR AGONIST” (Guanghzou University of Chinese Medicine, priority 2018, published 2021)
